For one experiment, the species on record is Rattus norvegicus. Put plainly: Relative affinity for dopamine transporter and muscarinic acetylcholine M1 receptor.
The target of experiment [1] is Monoamine transporters; Norepininephrine & dopamine (Rattus norvegicus) (UniProt P23977+Q9WTR4). Put plainly: Relative affinity for dopamine and norepinephrine transporters. The format is protein assay.
In experiment [2] the target is Sodium-dependent dopamine transporter (Rattus norvegicus, UniProt P23977). Put plainly: Displacement of [3H]WIN-35428 from dopamine transporter of rat brain membrane. The format is tissue-based.
Sequence of Sodium-dependent dopamine transporter (P23977 whole entry): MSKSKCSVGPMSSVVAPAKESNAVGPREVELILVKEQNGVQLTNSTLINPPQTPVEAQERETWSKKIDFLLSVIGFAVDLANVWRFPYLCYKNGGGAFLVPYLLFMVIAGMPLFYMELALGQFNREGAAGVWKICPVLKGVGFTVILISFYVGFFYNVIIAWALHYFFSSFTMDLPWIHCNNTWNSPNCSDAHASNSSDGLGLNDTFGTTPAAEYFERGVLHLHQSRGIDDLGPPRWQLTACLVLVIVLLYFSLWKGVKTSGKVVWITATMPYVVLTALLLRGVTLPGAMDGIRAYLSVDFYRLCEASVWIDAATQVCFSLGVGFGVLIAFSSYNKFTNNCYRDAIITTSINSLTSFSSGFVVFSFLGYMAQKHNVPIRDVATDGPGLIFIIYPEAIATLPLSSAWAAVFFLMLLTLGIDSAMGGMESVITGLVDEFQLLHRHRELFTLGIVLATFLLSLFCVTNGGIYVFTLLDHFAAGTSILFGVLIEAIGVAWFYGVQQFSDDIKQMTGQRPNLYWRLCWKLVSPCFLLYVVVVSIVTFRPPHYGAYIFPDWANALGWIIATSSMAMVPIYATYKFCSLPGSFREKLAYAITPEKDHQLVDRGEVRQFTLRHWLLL
The target of experiment [3] is Monoamine transporters; serotonin & dopamine (Rattus norvegicus) (UniProt P31652+P23977). Put plainly: Relative affinity for dopamine and serotonin transporters. The format is protein assay.
Sequence of Monoamine transporters; serotonin & dopamine (Rattus norvegicus) (P23977 whole entry, looked up): as the sequence (P23977 whole entry) above
Sequence of Monoamine transporters; serotonin & dopamine (Rattus norvegicus) (P31652 whole entry, looked up): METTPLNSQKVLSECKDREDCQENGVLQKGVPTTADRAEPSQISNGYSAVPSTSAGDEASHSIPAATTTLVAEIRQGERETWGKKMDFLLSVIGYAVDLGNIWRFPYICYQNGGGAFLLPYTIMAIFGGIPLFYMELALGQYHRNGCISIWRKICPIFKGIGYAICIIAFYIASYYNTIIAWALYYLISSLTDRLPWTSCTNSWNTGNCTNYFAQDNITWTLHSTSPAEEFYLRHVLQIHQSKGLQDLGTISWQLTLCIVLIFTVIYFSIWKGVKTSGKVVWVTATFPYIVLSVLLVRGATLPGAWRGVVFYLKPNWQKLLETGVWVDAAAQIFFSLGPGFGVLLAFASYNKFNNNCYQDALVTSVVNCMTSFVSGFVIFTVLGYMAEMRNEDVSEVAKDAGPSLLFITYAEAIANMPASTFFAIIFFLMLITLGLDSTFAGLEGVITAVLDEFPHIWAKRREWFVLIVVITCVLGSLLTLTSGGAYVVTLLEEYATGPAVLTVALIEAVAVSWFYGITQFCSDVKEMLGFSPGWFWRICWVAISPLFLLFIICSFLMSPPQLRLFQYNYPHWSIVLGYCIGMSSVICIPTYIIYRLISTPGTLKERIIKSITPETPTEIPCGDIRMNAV
The target of experiment [4] is Norepinephrine transporter (Rattus norvegicus, UniProt Q9WTR4). Put plainly: Displacement of [3H]-[…] from norepinephrine transporter of rat brain membrane. The format is tissue-based. (In general: Displacement assays read how much labelled ligand stays bound in the presence of the test substance.)
Sequence of Norepinephrine transporter (Q9WTR4 whole entry): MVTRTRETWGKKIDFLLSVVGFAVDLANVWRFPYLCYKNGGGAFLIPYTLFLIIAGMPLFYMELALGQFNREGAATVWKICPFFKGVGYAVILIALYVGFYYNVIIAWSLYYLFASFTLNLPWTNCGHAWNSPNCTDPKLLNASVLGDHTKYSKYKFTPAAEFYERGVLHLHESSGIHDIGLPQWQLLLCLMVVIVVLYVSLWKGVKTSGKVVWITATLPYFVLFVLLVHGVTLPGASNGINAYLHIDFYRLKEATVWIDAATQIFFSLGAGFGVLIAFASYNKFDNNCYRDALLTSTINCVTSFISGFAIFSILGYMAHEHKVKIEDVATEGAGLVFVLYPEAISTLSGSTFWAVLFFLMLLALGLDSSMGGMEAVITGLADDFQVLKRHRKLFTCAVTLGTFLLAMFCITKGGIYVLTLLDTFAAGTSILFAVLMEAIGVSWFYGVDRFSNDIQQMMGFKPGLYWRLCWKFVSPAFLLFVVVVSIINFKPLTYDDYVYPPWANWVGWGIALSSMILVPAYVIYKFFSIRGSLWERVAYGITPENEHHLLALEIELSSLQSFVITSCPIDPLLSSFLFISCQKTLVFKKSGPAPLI
The target in experiment [5] is T1, Muscarinic acetylcholine receptor M1 (Rattus norvegicus, UniProt P08482).
T1 sequence (P08482 whole entry): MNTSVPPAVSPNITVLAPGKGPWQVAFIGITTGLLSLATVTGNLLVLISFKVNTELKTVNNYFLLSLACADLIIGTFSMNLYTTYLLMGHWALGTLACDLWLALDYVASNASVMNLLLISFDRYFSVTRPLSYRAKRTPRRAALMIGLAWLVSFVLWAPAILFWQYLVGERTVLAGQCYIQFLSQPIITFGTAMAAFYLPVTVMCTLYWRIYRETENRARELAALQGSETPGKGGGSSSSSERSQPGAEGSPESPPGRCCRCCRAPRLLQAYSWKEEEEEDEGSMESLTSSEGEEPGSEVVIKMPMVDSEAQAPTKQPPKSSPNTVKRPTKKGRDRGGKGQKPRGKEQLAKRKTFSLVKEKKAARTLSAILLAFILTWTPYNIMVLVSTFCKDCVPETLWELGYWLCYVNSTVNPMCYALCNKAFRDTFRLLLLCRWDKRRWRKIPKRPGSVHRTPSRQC
Put plainly: Displacement of [3H]pirenzepine from muscarinic acetylcholine receptor M1 of rat brain membrane.

The target in experiment [6] is T2, Sodium-dependent serotonin transporter (Rattus norvegicus, UniProt P31652). Put plainly: Displacement of [3H]-citalopram from serotonin transporter of rat brain membrane. It counts as tissue-based.
T2 sequence (P31652 whole entry): as the sequence (P31652 whole entry, looked up) above
Experiment [7] deals with T2, Sodium-dependent serotonin transporter. Put plainly: Displacement of [3H]citalopram from serotonin transporter of rat brain membrane. It counts as tissue-based.

By Ki is commonly meant the equilibrium dissociation constant of an inhibitor or competing ligand from its target. Read a high Ki as lower affinity. `CCOC(=O)[C@H]1CC2C[C@H](OC(c3ccc(F)cc3)c3ccc(F)cc3)CC1N2C` (stereo partly specified): the Selectivity amounted to 2 in the experiment filed under Rattus norvegicus, 49 in experiment [1] and 186 in experiment [3]. For the same molecule, the Ki in experiment [2] was determined as 0.0754 µM; in experiment [4] it was 3.72 µM; in experiment [5], 0.142 µM; in experiment [6], 14 µM.
On to `CC(C)OC(=O)[C@H]1CC2C[C@H](OC(c3ccc(F)cc3)c3ccc(F)cc3)CC1N2C` (stereo partly specified), for which the Selectivity in the experiment filed under Rattus norvegicus came out at 5; in experiment [1], 68; in experiment [3], 98. Further, the Ki came to 0.151 µM in experiment [2], 10.2 µM in experiment [4], 0.784 µM in experiment [5] and 14.8 µM in experiment [6].
For the molecule `COS(=O)(=O)[C@H]1CC2C[C@H](OC(c3ccc(F)cc3)c3ccc(F)cc3)CC1N2C` (stereo partly specified), the Selectivity in the experiment filed under Rattus norvegicus stood at 8; in experiment [1], 85; in experiment [3], 170. Besides, the Ki in experiment [2] was found to be 0.081 µM; in experiment [4], 6.88 µM; in experiment [5] it was 0.617 µM; in experiment [6] it was 13.8 µM.
For `O=C(Oc1ccccc1)[C@H]1CC2C[C@H](OC(c3ccc(F)cc3)c3ccc(F)cc3)CC1N2` (stereo partly specified), the results for the Selectivity (in the experiment filed under Rattus norvegicus; in experiment [1]; in experiment [3]) were 48, 18 and 25, respectively. The Ki in experiment [2] amounted to 0.175 µM; in experiment [4], 3.17 µM; in experiment [5], 8.43 µM; in experiment [6] it was 4.44 µM.
As for `CN1C2CC(OC(c3ccc(F)cc3)c3ccc(F)cc3)CC1[C@@H](O)C2` (stereo partly specified), the Selectivity was 8 in the experiment listed under Rattus norvegicus, 207 in experiment [1] and 1450 in experiment [3]. Also, the Ki in experiment [7] came to 9.09 µM; in experiment [2] it was 0.00628 µM; in experiment [4], 1.3 µM; in experiment [5], 0.0483 µM.
Turning to `CN1C2C[C@H](OC(c3ccc(F)cc3)c3ccc(F)cc3)CC1[C@@H](C(=O)Oc1ccccc1)C2` (stereo partly specified), the Selectivity in the experiment filed under Rattus norvegicus is 5; in experiment [1], 13; in experiment [3] it was 35. The Ki in experiment [2] was determined as 0.107 µM; in experiment [4] it was 1.37 µM; in experiment [5] it was 0.552 µM; in experiment [6], 3.73 µM.
Regarding `CN1C2C[C@H](OC(c3ccc(F)cc3)c3ccc(F)cc3)CC1[C@@H](C(=O)OCc1ccccc1)C2` (stereo partly specified), the values for the Selectivity (in the experiment listed under Rattus norvegicus; in experiment [1]; in experiment [3]) were 19, 52 and 49, respectively. Further, the Ki in experiment [2] was 0.119 µM; in experiment [4], 6.21 µM; in experiment [5] it was 2.27 µM; in experiment [6] it was 5.85 µM.
`CC(C)COC(=O)[C@H]1CC2C[C@H](OC(c3ccc(F)cc3)c3ccc(F)cc3)CC1N2C` (stereo partly specified): the Selectivity in the experiment filed under Rattus norvegicus amounted to 5; in experiment [1] it was 45; in experiment [3], 54. Further, the Ki worked out at 0.148 µM in experiment [2], 6.61 µM in experiment [4], 0.723 µM in experiment [5] and 7.96 µM in experiment [6].
`CN1C2CC(OC(c3ccc(F)cc3)c3ccc(F)cc3)CC1[C@@H](C(=O)O)C2` (stereo partly specified): the results for the Selectivity (in the experiment filed under Rattus norvegicus; in experiment [1]; in experiment [3]) were 8, 238 and 1430, respectively. Also, the Ki in experiment [2] was determined as 0.00581 µM; in experiment [4], 1.38 µM; in experiment [5] it was 0.0468 µM; in experiment [6], 8.29 µM.
`COC(=O)[C@H]1CC2C[C@H](OC(c3ccc(F)cc3)c3ccc(F)cc3)CC1N2C` (stereo partly specified): the Selectivity is 8 in the experiment filed under Rattus norvegicus, 121 in experiment [1] and 289 in experiment [3]. For the same molecule, the Ki amounted to 0.0571 µM in experiment [2], 6.91 µM in experiment [4], 0.432 µM in experiment [5] and 16.5 µM in experiment [6].
Regarding `COC(=O)[C@@H]1C2CC[C@@H](C[C@@H]1OC(=O)c1ccccc1)N2C` (single isomer, unassigned) [COCAINE], in experiment [5], the Ki worked out at 61.4 µM.
In the case of `CN1C2CC(OC(c3ccc(F)cc3)c3ccc(F)cc3)CC1[C@H](O)C2` (stereo partly specified), the Selectivity in the experiment listed under Rattus norvegicus worked out at 1; in experiment [1] it was 204; in experiment [3], 374. Also, the Ki is 0.0313 µM in experiment [2], 6.39 µM in experiment [4], 0.027 µM in experiment [5] and 11.7 µM in experiment [6].
Regarding `CN1C2C[C@H](OC(c3ccc(F)cc3)c3ccc(F)cc3)CC1[C@@H](C(=O)OCCc1ccccc1)C2` (stereo partly specified), the figures for the Selectivity (in the experiment listed under Rattus norvegicus; in experiment [1]; in experiment [3]) were 20, 33 and 47, respectively. The Ki in experiment [2] worked out at 0.171 µM; in experiment [4], 5.69 µM; in experiment [5], 3.48 µM; in experiment [6], 7.96 µM.
In experiment [4], `CN1C2CCC1CC(OC(c1ccc(F)cc1)c1ccc(F)cc1)C2` (stereo unspecified) [DIFLUOROBENZTROPINE] yielded a Ki of 0.844 µM.

These data come from ChEMBL document CHEMBL1146661, “The effect of 6-substituted-4',4"-difluorobenztropines on monoamine transporters and the muscarinic M1 receptor” (Bioorg Med Chem Lett, 2004).
